Reference: patent publication US8912227B1, “Bicyclic pyrrole derivatives useful as agonists of GPR120” (Janssen Pharmaceutica NV, priority 2014, dated 2014)

What was measured:
Format in all cases: cell-based
Human GPR120 short form [1] = molecular target: T1, Human GPR120 short form (Homo sapiens, UniProt Q5NUL3); assay: Human GPR120 calcium flux assay, Procedure Calcium A; settings: HEK-293 cells expressing human GPR120 short form, 2500 cells/well, FLIPR
T1 construct: expressed in transfected cells
T1 sequence (Q5NUL3 1-361): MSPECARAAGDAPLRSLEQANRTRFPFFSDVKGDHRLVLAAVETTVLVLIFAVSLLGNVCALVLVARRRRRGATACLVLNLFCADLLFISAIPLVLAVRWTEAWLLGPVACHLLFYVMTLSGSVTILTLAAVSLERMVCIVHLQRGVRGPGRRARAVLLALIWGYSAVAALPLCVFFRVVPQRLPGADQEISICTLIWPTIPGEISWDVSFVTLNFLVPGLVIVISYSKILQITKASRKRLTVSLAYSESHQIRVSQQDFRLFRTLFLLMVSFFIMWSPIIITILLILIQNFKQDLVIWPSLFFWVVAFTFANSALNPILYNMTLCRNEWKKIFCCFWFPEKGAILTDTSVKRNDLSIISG
How it was run: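 HEK293 cells stably expressing the human GPR120 short splice variant (NM_001195755.1) were seeded at 2500 cells/well, serum-starved 1 h and loaded with Fluo-4 NW plus probenecid. Compounds (100–0.012 μM solutions, 0.2% final DMSO) were added, and FLIPR calcium flux was read for 300 s. EC50 came from a variable-slope fit (Hill <2) of Fmax−Fmin.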

[2] = molecular target: T2, long form of human GPR120 (Homo sapiens, UniProt Q5NUL3); assay: Human GPR120 DiscoveRx PathHunter β-Arrestin assay, Procedure β-arrestin A; settings: PathHunter CHO-K1 GPR120 β-Arrestin cell line, 3000 cells per well
T2 construct: host or cells: PathHunter CHO-K1 GPR120 β-Arrestin Cell Line
T2 sequence (Q5NUL3 1-377 isoform Q5NUL3-1): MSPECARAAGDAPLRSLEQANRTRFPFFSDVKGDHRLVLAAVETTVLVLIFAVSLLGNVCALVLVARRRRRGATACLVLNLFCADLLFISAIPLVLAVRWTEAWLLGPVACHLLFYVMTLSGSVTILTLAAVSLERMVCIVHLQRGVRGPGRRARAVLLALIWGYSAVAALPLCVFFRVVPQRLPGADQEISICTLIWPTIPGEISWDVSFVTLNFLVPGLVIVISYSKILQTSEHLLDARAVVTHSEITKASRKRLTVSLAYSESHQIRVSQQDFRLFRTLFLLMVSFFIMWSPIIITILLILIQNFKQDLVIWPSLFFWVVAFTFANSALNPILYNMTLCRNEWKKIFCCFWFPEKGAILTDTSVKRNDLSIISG
T2 sequence (P32121 whole entry partner): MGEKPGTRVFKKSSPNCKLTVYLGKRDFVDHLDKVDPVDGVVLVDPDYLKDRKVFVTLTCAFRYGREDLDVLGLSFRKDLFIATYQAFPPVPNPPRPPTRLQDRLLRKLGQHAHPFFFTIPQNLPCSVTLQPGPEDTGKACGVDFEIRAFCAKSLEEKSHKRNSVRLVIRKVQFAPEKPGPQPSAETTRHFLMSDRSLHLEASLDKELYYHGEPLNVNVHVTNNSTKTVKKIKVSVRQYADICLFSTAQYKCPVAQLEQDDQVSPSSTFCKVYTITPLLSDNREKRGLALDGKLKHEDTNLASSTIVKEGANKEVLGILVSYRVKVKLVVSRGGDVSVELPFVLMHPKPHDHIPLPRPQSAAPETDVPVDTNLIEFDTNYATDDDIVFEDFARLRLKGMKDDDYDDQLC
Text: The binding of an agonist (medium/long chain fatty acids or small molecule agonists) to the G-protein-coupled receptor GPR120 activates phospholipase C, leading to release of intracellular Ca^+2 through the generation of inositol 1,4,5-trisphosphate (InsP3 or IP3). GPR120 activation can also trigger intracellular signaling via recruitment of β-Arrestin. In the present method, agonist-induced activation of the human GPR120 receptor is monitored through the use of PathHunter CHO-K1 GPR120 β-Arrestin Cell Line engineered by DiscoveRx, as detailed below. The cell lines are designed to co-express both the ProLink/Enzyme Donor (PK)-tagged GPCR and the Enzyme […] (EA)-tagged Beta-Arrestin fusion proteins. Upon GPR120 receptor stimulation/activation, the EA-tagged β-Arrestin portion is translocated to the tagged receptor, where the two enzyme fragments are brought within close proximity. Under these conditions, these fragments can interact and form an active Beta-gal enzyme complex through Enzyme Fragment Complementation (EFC). This active Beta-gal complex can enzymatically hydrolyse the substrate to produce a detectable light signal; therefore, activation as a function of agonist concentration can be expressed as an EC50 value to determine relative compound activities. This in vitro assay therefore serves to assess compound agonist activity of the GPR120.
In Procedure β-arrestin A, the cell used were PathHunter CHO-K1 GPR120 β-Arrestin Cell Line, expressing the long form of human GPR120 (Genbank accession number NM_181745), with 3000 cells per well.
The selected CHO-K1 GPR120 β-Arrestin cells were cultured in Ham's F12 media supplemented with 10% fetal bovine serum (FBS), 1% Glutamine, 1×p/s, 800 μg/ml G418 and 300 μg/ml Hygromycin B (for selection). Cell stocks were maintained and grown in a sub-confluent state using standard cell culture procedures. The day before the experiment, the cells were harvested with non-enzymatic cell dissociation buffer and re-suspended in complete growth media at the desired concentration. A Corning 384-plate was then seeded with the proper number of cells in a volume of 25 μL, per well. The seeded plates were incubated overnight at 37° C.
On the day of the experiment, the Assay Buffer containing (a) HBSS with Ca^++ and Mg^++, (b) 20 mM HEPES, and (c) 0.1% BSA stabilizer (pH 7.4) was prepared. The growth medium was gently removed from the cell plates and 20 μL of Assay Buffer added to each well. The plate was then incubated at 37° C. for 60 mins. Test compounds were serially diluted in Assay Buffer to desired concentrations (more particularly, to one or more of the following μM concentrations: 25 μM, 12.5 μM, 6.25 μM, 3.125 μM, 1.562 μM, 0.781 μM, 0.391 μM, 0.195 μM, 0.098 μM, 0.049 μM, 0.024 μM, 0.012 μM). Five μl of compound dilution was then added to each well and the plate incubated at 37° C. for 90 mins. The detection reagents were prepared according to the manufacture's instruction. Twelve μL of the detection reagents were added to each well and the plate incubated at room temperature for 60 mins.
The plates were read on an EnVision instrument, using Protocol name: Luminescence, Plate type: 384 Costar, Measurement height: 3 mm, Measurement time: 1 s, Aperture: 384 Plate aperture. The % activity relative to the positive control was calculated using the following equation:
The % Activity values were plotted versus the concentration of test compound and fitted to a sigmoidal dose-response curve with a Hill slope=1 (fixed value) using nonlinear regression with GraphPad Prism 5.0 to calculate the EC50 values. The Fitting Equation was: Y=Bottom+(Top−Bottom)/(1+10^((LogEC50−X)*HillSlope)), where X is the log of the concentration and Y is the response.

Human GPR120 short form [3] = molecular target: T1, Human GPR120 short form; assay: Human GPR120 calcium flux assay, Procedure Calcium B; settings: HEK-293 cells expressing human GPR120 short form, 4200 cells/well, FLIPR

EC50 (Human GPR120 short form [1]) [nM]	EC50 [2] [nM]	EC50 (Human GPR120 short form [3]) [nM]	Structure (SMILES)
608	203	413	COc1ccc(-n2ccc(C(F)(F)F)c2COc2ccc(CCCO)c(C)c2C)cc1 [Compound 25, 3-(4-{[1-(4-Methoxyphenyl)-3-(trifluoromethyl)-1H-pyrrol-2-yl]methoxy}-2,3-dimethylphenyl)propan-1-ol]
843	283	261	Cc1c(CCCO)ccc(OCc2c(C(F)(F)F)ccn2-c2ccccc2)c1C [Compound 19, 3-(2,3-Dimethyl-4-{[1-phenyl-3-(trifluoromethyl)-1H-pyrrol-2-yl]methoxy}phenyl)propan-1-ol]
427	25	246	OCCCc1cc(F)c(OCc2c(C(F)(F)F)ccn2-c2ccc(Br)cc2)c(F)c1 [Compound 30, 3-(4-[[1-(4-bromophenyl)-3-(trifluoromethyl)-1H-pyrrol-2-yl]methoxy]-3,5-difluorophenyl)propan-1-ol]
621	99	43	OCCCc1cc(F)c(OCc2c(C(F)(F)F)ccn2-c2ccc(Cl)cc2)c(F)c1 [Compound 46, 3-(4-{[1-(4-Chlorophenyl)-3-(trifluoromethyl)-1H-pyrrol-2-yl]methoxy}-3,5-difluorophenyl)propan-1-ol]
836	639	91	O=C(O)CCc1ccc(OCc2c(C(F)(F)F)ccn2-c2ccc(Cl)cc2)c(F)c1F [Compound 16, 3-(4-{[1-(4-Chlorophenyl)-3-(trifluoromethyl)-1H-pyrrol-2-yl]methoxy}-2,3-difluorophenyl)propanoic acid]
1090	258	740	OCCCc1ccc(OCc2c(Cl)ccn2-c2ccc(Cl)cc2)c(F)c1F [Compound 10, 3-(4-{[3-Chloro-1-(4-chlorophenyl)-1H-pyrrol-2-yl]methoxy}-2,3-difluorophenyl)propan-1-ol]
558	359	63	Cc1ccc(-n2ccc(C(F)(F)F)c2COc2ccc(CCC(=O)O)c(C)c2C)cc1 [Compound 43, 3-(2,3-dimethyl-4-[[1-(4-methylphenyl)-3-(trifluoromethyl)-1H-pyrrol-2-yl]methoxy]phenyl)propanoic acid]
450	678	101	O=C(O)CCc1cc(F)c(OCc2c(C(F)(F)F)ccn2-c2ccccc2)c(F)c1 [Compound 38, 3-(3,5-difluoro-4-((1-phenyl-3-(trifluoromethyl)-1H-pyrrol-2-yl)methoxy)phenyl)propanoic acid]
916	249	230	COc1ccc(-n2ccc(C(F)(F)F)c2COc2ccc(CCC(=O)O)c(F)c2F)cc1 [Compound 26, 3-(2,3-Difluoro-4-{[1-(4-methoxyphenyl)-3-(trifluoromethyl)-1H-pyrrol-2-yl]methoxy}phenyl)propanoic acid]
1090	238	533	Cc1c(CCCO)ccc(OCc2c(C(F)(F)F)ccn2-c2ccc(Cl)cc2)c1C [Compound 17, 3-(4-{[1-(4-Chlorophenyl)-3-(trifluoromethyl)-1H-pyrrol-2-yl]methoxy}-2,3-dimethylphenyl)propan-1-ol]
119	16	28	Cc1ccc(-n2ccc(C(F)(F)F)c2COc2c(F)cc(CCCO)cc2F)cc1 [Compound 37, 3-(3,5-difluoro-4-[[1-(4-methylphenyl)-3-(trifluoromethyl)-1H-pyrrol-2-yl]methoxy]phenyl)propan-1-ol]
641	221	108	COc1ccc(-n2ccc(C(F)(F)F)c2COc2c(F)cc(CCC(=O)O)cc2F)cc1 [Compound 28, 3-(3,5-Difluoro-4-{[1-(4-methoxyphenyl)-3-(trifluoromethyl)-1H-pyrrol-2-yl]methoxy}phenyl)propanoic acid]
882	932	162	CCc1ccc(-n2ccc(C(F)(F)F)c2COc2ccc(CCC(=O)O)c(F)c2F)cn1 [Compound 58, 3-(4-[[1-(6-ethylpyridin-3-yl)-3-(trifluoromethyl)-1H-pyrrol-2-yl]methoxy]-2,3-difluorophenyl)propanoic acid]
934	859	161	O=C(O)CCc1ccc(OCc2c(Cl)ccn2-c2ccc(Cl)cc2)c(F)c1F [Compound 11, 3-(4-{[3-chloro-1-(4-chlorophenyl)-1H-pyrrol-2-yl]methoxy}-2,3-difluorophenyl)propanoic acid]
375	241	66	Cc1ccc(-n2ccc(C(F)(F)F)c2COc2ccc(CCCO)c(F)c2F)cn1 [Compound 47, 3-(2,3-difluoro-4-[[1-(6-methylpyridin-3-yl)-3-(trifluoromethyl)-1H-pyrrol-2-yl]methoxy]phenyl)propan-1-ol trifluoroacetic acid]
434	48	82	CCc1ccc(-n2ccc(C(F)(F)F)c2COc2c(F)cc(CCCO)cc2F)cc1 [Compound 33, 3-(4-[[1-(4-ethylphenyl)-3-(trifluoromethyl)-1H-pyrrol-2-yl]methoxy]-3,5-difluoro-phenyl)propan-1-ol]
993	1100	88	Cc1c(CCC(=O)O)ccc(OCc2c(C(F)(F)F)ccn2-c2ccc(Cl)cc2)c1C [Compound 15, 3-(4-{[1-(4-Chlorophenyl)-3-(trifluoromethyl)-1H-pyrrol-2-yl]methoxy}-2,3-dimethylphenyl)propanoic acid]
222	61	67	COc1ccc(-n2ccc(C(F)(F)F)c2COc2c(F)cc(CCCO)cc2F)cc1 [Compound 31, 3-(3,5-Difluoro-4-{[1-(4-methoxyphenyl)-3-(trifluoromethyl)-1H-pyrrol-2-yl]methoxy}phenyl)propan-1-ol]
507	201	63	OCCCc1cc(F)c(OCc2c(C(F)(F)F)ccn2-c2ccccc2)c(F)c1 [Compound 35, 3-(3,5-difluoro-4-[[1-phenyl-3-(trifluoromethyl)-1H-pyrrol-2-yl]methoxy]phenyl)propan-1-ol]
